Laboratory results taken from patent US5358936A, “Anionic furanose derivatives, methods of making and using the same” (Gordon; Paul, priority 1991, dated 1994).

Experiments:
[1] = tested on: foot pad; assay: Inflammation provoked by carrageenan injection (Example 25); type: in vivo, mice; conditions: subcutaneous; ibuprofen 50 mg/kg, Compound III 30 mg/kg; not significant
[2] = tested on: peritoneal neutrophils; assay: In vitro neutrophil chemotaxis toward zymosan-activated rat serum (Example 24); type: cell-based, mouse; conditions: Mus musculus, Neutrophil
Method: In vitro neutrophil chemotaxis studies were carried out by standard methods, as follows:
Mice were injected with complete Freund's adjuvant (CFA) and peritoneal cells, principally neutrophjls (>90 percent), were reproved from the mice 24 hours thereafter. Blind-well chemotactic chambers (Nucleopore Corp., Pleasanton, Calif.) were utilized.
Medium (RPMI 1640 plus 10 percent fetal calf serum) or medium plus 20 percent zymosan-activated rat serum (ZAS) was added to the lower compartment of each chamber. A nucleopore filter (8 μm pore size) was placed between compartments and 1×10^5 peritoneal neutrophils (above) suspended in medium were placed in the upper compartment. Chambers were incubated for six hours, after which time the filters were removed and stained with Giemsa stain. The number of cells on the lower surface of the filter was counted under a microscope. Treatment groups were assayed in duplicate.
The studies were carried out more specifically as follows:
Zymosan (Sigma Chemical Co., St. Louis, Mo.) was mixed with rat serum for one hour at 37° C. at 1 milligram (mg)/ml. The resulting chemoattractant composition was filtered, aliquotted and stored frozen at -70° C. prior to use.
The above chemoattractant composition was used as a 20 percent v/v solution in medium.
The chemotaxis chambers were arranged as follows:
The chambers were incubated at 37° C. for six hours, after which the chambers were dismantled, and the filters removed and treated as follows:
a) The filters were immersed in Giemsa stain diluted 1:50 for 30-45 minutes.
b) The stained filters were rinsed gently in distilled water for 3-5 minutes.
c) The stained, rinsed filters were air dried without blotting.
Several compounds described herein and control compounds ("drug", above) were examined at various concentrations, in duplicate. The molar concentration of a drug that inhibited the observed chemotaxis by 50 percent, defined as the ID50 value, was determined as shown below.

[3] = tested on: inflammation in experimental allergic encephalomyelitis; conditions: Willenborg et al. (1989); cited from earlier work

For `CC(C)Cc1ccc(C(C)C(=O)O)cc1` (centres unmarked) [Ibuprofen, reference compound], the reduction in swelling [1] was 24%, the IC50 ([2]; 6 h, 20 percent zymosan-activated rat serum, six hours, 37° C., read-out: ID50 (molar concentration that inhibited chemotaxis by 50 percent)) was > 50 µM and the inhibition at 0.1 µg/mL ([2]; dose 0.1 μg/ml, read-out: Percent Inhibition of chemotaxis) was 17.5%. For the same compound, the inhibition at 1 µg/mL ([2]; dose 1.0 μg/ml, read-out: Percent Inhibition of chemotaxis) was 9.3% and the inhibition at 10 µg/mL ([2]; dose 10.0 μg/ml, read-out: Percent Inhibition of chemotaxis) was 35.5%.

In the case of `O=P(O)(O)OC[C@H]1O[C@H](OP(=O)(O)O)[C@@H](O)[C@@H](O)[C@@H]1O` [Mannose-1,6-diphosphate], the “effect on inflammation in EAE, in words” value [3] is given as “less effective than mannose-6-phosphate”.

In the case of `O=P(O)(O)OC[C@H]1OC(O)[C@@H](O)[C@@H](O)[C@@H]1O` (some centres unmarked) [Mannose-6-phosphate], the “effect on inflammation in EAE, in words” value [3] is given as “useful in treating inflammation”.

For `O=P(O)(O)OC[C@H]1OC(O)(COP(=O)(O)O)[C@@H](O)[C@@H]1O` (some centres unmarked) [fructose-1,6-diphosphate], the “effect on inflammation in EAE, in words” value [3] is given as “less effective than mannose-6-phosphate”.
